Measurements published in patent publication US20220089600A1, “TGFß INHIBITOR AND PRODRUGS” (FUNDACIÓ INSTITUT DE RECERCA BIOMÈDICA (IRB BARCELONA), priority 2018, published 2022).

How the values were obtained:
TGFBR2 = target: T1, TGFBR2 (Homo sapiens, UniProt P37173); test: KINOMEscan affinity, competition binding
T1 construct: purchased Eurofins (KINOMEscan service)
Protocol: The affinity, measured as Kd (dissociation constants), of the compound of formula I for the ALK family was determined by using the KINOMEscan™ Technology from Eurofins. Selectivity in front of ALK1 (ACVRL1), ALK2 (ACVR1), ALK3 (BMPR1A), ALK4 (ACVR1B), ALK6 (BMPR1B), ACVR2B and TGFβR2 was determined.
The KINOMEscan screening platform employs an active-site directed competition binding assay to quantitatively measure interactions between test compounds and kinases.
The assay is performed by combining three components: DNA-tagged kinase; immobilized ligand; and a test compound. The ability of the test compound to compete with the immobilized ligand is measured via quantitative PCR of the DNA tag.
Test compounds were prepared as 111× stocks in 100% DMSO. Kds were determined using an 11-point 3-fold compound dilution series with three DMSO control points being the top concentration 30 μM. […] The compounds were then diluted directly into the assays such that the final concentration of DMSO was 0.9%. All reactions performed in polypropylene 384-well plate. Each was a final volume of 0.02 ml. […] The beads were then re-suspended in elution buffer (1×PBS, 0.05% Tween 20, 0.5 μM non-biotinylated affinity ligand) and incubated at room temperature with shaking for 30 minutes. The kinase concentration in the eluates was measured by qPCR.
Compounds that bind the kinase active site and directly (sterically) or indirectly (allosterically) prevent kinase binding to the immobilized ligand, will reduce the amount of kinase captured on the solid support. […] Dissociation constants (Kds) for test compound-kinase interactions are calculated by measuring the amount of kinase captured on the solid support as a function of the test compound concentration.

human ALK5 = target: T2, human ALK5 (Homo sapiens, UniProt P36897); test: KinaseProfiler enzymatic activity inhibition; format: biochemical
T2 construct: purchased Eurofins (Kinase Profiler service)
T2 sequence (P36897 34-503): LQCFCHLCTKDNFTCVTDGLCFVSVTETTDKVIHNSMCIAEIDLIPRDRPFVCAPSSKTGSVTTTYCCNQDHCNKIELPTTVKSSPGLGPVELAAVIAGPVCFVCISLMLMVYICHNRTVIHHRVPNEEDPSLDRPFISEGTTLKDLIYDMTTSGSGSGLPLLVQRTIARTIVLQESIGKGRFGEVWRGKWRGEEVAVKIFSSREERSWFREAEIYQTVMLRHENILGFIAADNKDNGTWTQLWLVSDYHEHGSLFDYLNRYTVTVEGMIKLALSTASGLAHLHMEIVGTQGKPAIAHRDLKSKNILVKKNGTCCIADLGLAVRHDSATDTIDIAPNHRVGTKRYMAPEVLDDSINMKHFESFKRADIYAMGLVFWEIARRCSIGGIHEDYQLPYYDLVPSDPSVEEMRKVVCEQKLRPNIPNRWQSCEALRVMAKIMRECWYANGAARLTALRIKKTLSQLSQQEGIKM
Protocol: Briefly, human ALK5 was incubated with 8 mM MOPS pH 7.0, 0.2 mM EDTA, 1 mM MnCl2, 2 mg/mL casein, 10 mM MgAcetate and [γ-33P-ATP] (specific activity approx. 500 cpm/pmol, concentration as required). The reaction was initiated by the addition of the MgATP mix. After incubation for 40 minutes at room temperature, the reaction was stopped by the addition of a 3% phosphoric acid solution. 10 μL of the reaction was then spotted onto a P30 filtermat and washed three times for 5 minutes in 75 mM phosphoric acid and once in methanol prior to drying and scintillation counting.
Compounds were tested using a 9-point curve with half-Log serial dilutions. The top concentration tested was 10 μM. Test compounds were prepared in 100% DMSO.

[1] = system: TGFβ signaling (12×CAGA-Firefly_Luc reporter) in HEK293T cells; test: In vitro CAGA-Luciferase reporter assay; format: cell-based; settings: Homo sapiens, HEK-293T, 5 ng/ml TGFB1, 16h, read-out: IC50, TGFβ signaling inhibition (CAGA-Luciferase)
Protocol: HEK293T cells were purchased from the ATCC and cultured in DMEM supplemented with L-glutamine and 10% fetal bovine serum (Life Technologies) at 37° C. and 5% CO2. The cells were seeded in 24-well plates and transfected with plasmids encoding 12×CAGA-Firefly_Luc and Tk-Renilla_Luc (75 and 10 ng per well, respectively), using polyethylenimine (Polysciences) as transfection reagent. After 7h, medium was replaced for starvation medium (DMEM+0.05% FBS). […] Luciferase activity was measured 16h later using the Dual Luciferase Assay kit (Promega): media were aspirated, and cells were lysed in 200 μl passive lysis buffer (kit) for 20 minutes. Bioluminescence was measured in a Berthold Lumat LB6507 luminometer (18 μl reagents, 10 seconds measurements). […]
When adding the luciferase substrate (luciferin) to the cell lysates, emission of light implies an active TGF-β pathway due to the production of pSMAD2/3-SMAD4, whereas no or little observed light would imply inhibition of the pathway by the inhibitor. Finally, the results could be normalized by the addition of Stop & Glo® which quenches the firefly luciferase enzyme/substrate and activates the Renilla transfection control, producing light which was again measured by the luminometer and used to normalize the data.

[2] = In vivo toxicity, histopathology; design: species or system mouse; settings: for Sternum side effect, mice affected per mice tested / Long bones side effect, mice affected per mice tested: two weeks
Description: Number of cured mice, i.e. mice with no metastases at experimental end points, were score. Intestines, skin samples, hearts, thoracic skeletons and limbs of these mice were fixed in 10% formalin, phosphate buffered (Sigma). Soft tissues were embedded in paraffin blocks, sectioned and stained with haematoxylin & eosin. Bones were first decalcified for 2 weeks before embedding, sectioning and staining. An experienced pathologist analyzed tissues for histopathological abnormalities. […] Furthermore, the cartilage ossification zone at the ends of the long bones was analysed for defects in the hypertrophic zone.

T1 sequence (P37173 23-567): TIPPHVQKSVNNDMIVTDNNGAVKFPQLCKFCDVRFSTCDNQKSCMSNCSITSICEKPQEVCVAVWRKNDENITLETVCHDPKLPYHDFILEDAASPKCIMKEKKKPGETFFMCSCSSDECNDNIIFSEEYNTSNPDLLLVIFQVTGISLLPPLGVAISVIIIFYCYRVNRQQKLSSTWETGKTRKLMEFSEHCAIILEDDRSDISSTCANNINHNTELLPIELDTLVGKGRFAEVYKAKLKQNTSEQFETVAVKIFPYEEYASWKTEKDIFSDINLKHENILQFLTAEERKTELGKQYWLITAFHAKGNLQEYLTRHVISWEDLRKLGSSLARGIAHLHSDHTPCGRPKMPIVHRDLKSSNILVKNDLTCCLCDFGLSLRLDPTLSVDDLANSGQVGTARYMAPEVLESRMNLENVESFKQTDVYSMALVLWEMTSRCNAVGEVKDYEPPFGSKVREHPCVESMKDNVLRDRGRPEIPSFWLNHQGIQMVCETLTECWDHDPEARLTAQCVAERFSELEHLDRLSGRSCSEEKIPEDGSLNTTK

In the case of Cc1cccc(-c2nn3c(c2-c2ccnc4ccc(O)cc24)CCC3)n1 [compound of formula I, 4-(2-(6-methylpyridin-2-yl)-5,6-dihydro-4H-pyrrolo[1,2-b]pyrazol-3-yl)quinolin-6-ol], the Selectivity improvement (TGFBR2; (I) versus Galunisertib) is reported as 83, the “selectivity for ALK5 against TGFBR2” value (TGFBR2; KINOMEscan) is reported as 100 fold and the “Selectivity against ALK5” value (TGFBR2; TGFBR2 versus ALK5) is reported as 100. For the same compound, the IC50 (human ALK5; KinaseProfiler, 9-point curve, top 10 μM, read-out: Enzyme activity inhibition IC50 (nM) ALK5 (TGFBR1)) was 177 nM, the “ALK5 enzymatic potency, times more potent than prodrug of formula (III)” value (human ALK5; from Table 2) was 4.7 times and the “ALK5 enzymatic potency, times more potent than prodrug of formula (IV)” value (human ALK5; from Table 2) was 12.9 times. For the same compound, the “ALK5 enzymatic potency, times more potent than reference compound 337” value (human ALK5; from Table 2) was 1.8 times, the “ALK5 enzymatic potency, times more potent than reference compound 338” value (human ALK5; from Table 2) was 2.1 times and the IC50 [1] was 0.165 µM. The “Combined side effects per number tested” value ([2]; 0.3x dose) was 0/5, the “Toxicity (%)” value ([2]; 0.3x dose) was 0% and the “Sternum side effect, mice affected per mice tested” value ([2]; 0.3x dose) was 0/5. For the same compound, the “Combined side effects per number tested” value ([2]; 1x dose) was 0/5, the “Toxicity (%)” value ([2]; 1x dose) was 0% and the “Sternum side effect, mice affected per mice tested” value ([2]; 1x dose) was 0/5. The “pathological analysis of the skin and intestine” value ([2]; 1× doses) was “No pathological anomalies”, the “Combined side effects per number tested” value ([2]; 3x dose) was 2/10 and the “Toxicity (%)” value ([2]; 3x dose) was 20%. For the same compound, the “Long bones side effect, mice affected per mice tested” value ([2]; 3x dose) was 1/5, the “Sternum side effect, mice affected per mice tested” value ([2]; 3x dose) was 1/5 and the “Combined side effects per number tested” value ([2]; 9x dose) was 4/8. The “Toxicity (%)” value ([2]; 9x dose) was 50%, the “Long bones side effect, mice affected per mice tested” value ([2]; 9x dose) was 3/4 and the “Sternum side effect, mice affected per mice tested” value ([2]; 9x dose) was 1/4. The “toxic dose (toxicity >50%)” value ([2]; 9× dose equivalent) was 1272 mg/kg/day and the “therapeutic index (toxic dose/effective dose)” value ([2]; dose equivalents) was 30.
